Laboratory results taken from ChEMBL document CHEMBL1201862, “PubChem BioAssay data set” (2004).
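Exposure lasted 48 hours, with cells grown in 96-well plates and compounds tested at five concentrations. The concentration for 50% growth inhibition is given as GI50.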 Calls of active or inactive are those of the source. Cut-off read from the data, not from the text of the source: active = GI50 up to about 1.1 µM and inactive = higher.

Legend:
Assay in all cases: inhibition of tumour cell growth, NCI panel, 48 h
[1] = system: SNB-75
[2] = system: HCT-15
[3] = system: SK-MEL-5
[4] = system: Malme-3M
[5] = system: SK-MEL-2
[6] = system: HT-29
[7] = system: DMS-273
[8] = system: HOP-18
[9] = system: MOLT-4
[10] = system: SNB-19
[11] = system: RPMI-8226
[12] = system: K562
[13] = system: SK-OV-3
[14] = system: KM-20L2
[15] = system: DLD-1
[16] = system: SN12C
[17] = system: NCI-H460
[18] = system: SF-268
[19] = system: SR
[20] = system: TK-10
[21] = system: HOP-62
[22] = system: 786-0
[23] = system: A498
[24] = system: EKVX
[25] = system: KM12
[26] = system: SF-295
[27] = system: SF-539
[28] = system: NCI-H226
[29] = system: SNB-78
[30] = system: HL-60
[31] = system: HCT-116
[32] = system: ACHN
[33] = system: M14
[34] = system: OVCAR-5
[35] = system: M19-MEL
[36] = system: DMS-114
[37] = system: OVCAR-3
[38] = system: IGROV-1
[39] = system: UACC-257
[40] = system: OVCAR-8
[41] = system: LXFL 529
[42] = system: CCRF-CEM
[43] = system: OVCAR-4
[44] = system: LOX IMVI
[45] = system: NCI-H522
[46] = system: A549
[47] = system: SK-MEL-28
[48] = system: UO-31
[49] = system: UACC-62
[50] = system: COLO 205
[51] = system: HCC 2998
[52] = system: CAKI-1
[53] = system: U-251
[54] = system: SW-620
[55] = system: NCI-H23
[56] = system: DU-145
[57] = system: HOP-92
[58] = system: T47D
[59] = system: MDA-MB-435
[60] = system: MDA-MB-231
[61] = system: PC-3
[62] = system: MDA-N
[63] = system: RXF 393
[64] = system: NCI/ADR-RES
[65] = system: Hs-578T
[66] = system: BT-549
[67] = system: MCF7

For `C/C(CN1C(=O)c2ccccc2C1=O)=N\NS(=O)(=O)c1ccc2ccccc2c1`, the GI50 [1] was 0.0321 mM (inactive), the GI50 [2] was > 0.1 mM and the GI50 [3] was > 0.1 mM (inactive). For the same compound, the GI50 [4] was > 0.1 mM (inactive), the GI50 [5] was > 0.1 mM (inactive) and the GI50 [6] was > 0.1 mM (inactive). For the same compound, the GI50 [7] was > 0.1 mM (inactive), the GI50 [8] was > 0.1 mM (inactive) and the GI50 [9] was > 0.1 mM (inactive). The GI50 [10] was > 0.1 mM (inactive), the GI50 [11] was > 0.1 mM (inactive) and the GI50 [12] was > 0.1 mM (inactive). For the same compound, the GI50 [13] was > 0.1 mM (inactive), the GI50 [14] was > 0.1 mM (inactive) and the GI50 [15] was > 0.1 mM (inactive). For the same compound, the GI50 [16] was > 0.1 mM (inactive), the GI50 [17] was > 0.1 mM (inactive) and the GI50 [18] was 0.0885 mM (inactive). The GI50 [19] was > 0.1 mM (inactive), the GI50 [20] was > 0.1 mM (inactive) and the GI50 [21] was > 0.1 mM (inactive). For the same compound, the GI50 [22] was > 0.1 mM (inactive), the GI50 [23] was > 0.1 mM (inactive) and the GI50 [24] was > 0.1 mM (inactive). The GI50 [25] was > 0.1 mM (inactive), the GI50 [26] was > 0.1 mM (inactive) and the GI50 [27] was > 0.1 mM (inactive). For the same compound, the GI50 [28] was > 0.1 mM (inactive), the GI50 [29] was > 0.1 mM (inactive) and the GI50 [30] was > 0.1 mM (inactive). For the same compound, the GI50 [31] was > 0.1 mM (inactive), the GI50 [32] was > 0.1 mM (inactive) and the GI50 [33] was > 0.1 mM (inactive). The GI50 [34] was > 0.1 mM (inactive), the GI50 [35] was > 0.1 mM (inactive) and the GI50 [36] was > 0.1 mM (inactive). The GI50 [37] was > 0.1 mM (inactive), the GI50 [38] was > 0.1 mM (inactive) and the GI50 [39] was > 0.1 mM (inactive). The GI50 [40] was > 0.1 mM (inactive), the GI50 [41] was > 0.1 mM (inactive) and the GI50 [42] was > 0.1 mM (inactive). The GI50 [43] was > 0.1 mM (inactive), the GI50 [44] was > 0.1 mM (inactive) and the GI50 [45] was 0.0577 mM (inactive). The GI50 [46] was > 0.1 mM (inactive), the GI50 [47] was > 0.1 mM (inactive) and the GI50 [48] was > 0.1 mM (inactive). The GI50 [49] was > 0.1 mM (inactive), the GI50 [50] was > 0.1 mM (inactive) and the GI50 [51] was > 0.1 mM (inactive). The GI50 [52] was > 0.1 mM (inactive), the GI50 [53] was > 0.1 mM (inactive) and the GI50 [54] was > 0.1 mM (inactive). The GI50 [55] was > 0.1 mM (inactive).

`CC(C)[C@](O)(C(=O)OCC1=CC[N+]2([O-])CC[C@@H](O)[C@@H]12)[C@H](C)O` (stereo not given in full) [INDICINE N-OXIDE] was tested, and the GI50 [1] was > 9.75 mM (inactive), the GI50 [56] was > 10 mM (inactive) and the GI50 [57] was > 9.73 mM (inactive). For the same compound, the GI50 [2] was > 10 mM, the GI50 [3] was > 7 mM (inactive) and the GI50 [4] was > 9.42 mM (inactive). For the same compound, the GI50 [5] was > 10 mM (inactive), the GI50 [6] was > 10 mM (inactive) and the GI50 [7] was 6.08 mM (inactive). The GI50 [58] was > 10 mM (inactive), the GI50 [8] was > 10 mM (inactive) and the GI50 [9] was 8.57 mM (inactive). For the same compound, the GI50 [10] was > 10 mM (inactive), the GI50 [11] was > 10 mM (inactive) and the GI50 [12] was > 10 mM (inactive). The GI50 [13] was > 10 mM (inactive), the GI50 [14] was > 10 mM (inactive) and the GI50 [15] was > 10 mM (inactive). For the same compound, the GI50 [16] was 8.87 mM (inactive), the GI50 [17] was 5.96 mM (inactive) and the GI50 [18] was > 9.93 mM (inactive). For the same compound, the GI50 [59] was > 10 mM (inactive), the GI50 [19] was 4.63 mM (inactive) and the GI50 [20] was > 10 mM (inactive). The GI50 [21] was 3.59 mM (inactive), the GI50 [22] was > 9.27 mM (inactive) and the GI50 [60] was > 10 mM (inactive). For the same compound, the GI50 [23] was 8.97 mM (inactive), the GI50 [24] was > 9.06 mM (inactive) and the GI50 [61] was > 10 mM (inactive). For the same compound, the GI50 [25] was > 10 mM (inactive), the GI50 [26] was > 10 mM (inactive) and the GI50 [62] was > 10 mM (inactive). The GI50 [63] was 7.46 mM (inactive), the GI50 [27] was > 9.08 mM (inactive) and the GI50 [64] was > 10 mM (inactive). The GI50 [28] was > 10 mM (inactive), the GI50 [29] was > 10 mM (inactive) and the GI50 [30] was 3.23 mM (inactive). The GI50 [31] was > 10 mM (inactive), the GI50 [32] was 4.6 mM (inactive) and the GI50 [33] was > 10 mM (inactive). The GI50 [34] was > 10 mM (inactive), the GI50 [35] was > 10 mM (inactive) and the GI50 [65] was > 5.43 mM (inactive). The GI50 [37] was 9.91 mM (inactive), the GI50 [38] was > 9.33 mM (inactive) and the GI50 [39] was > 10 mM (inactive). For the same compound, the GI50 [66] was > 10 mM (inactive), the GI50 [40] was 8.11 mM (inactive) and the GI50 [42] was > 9.16 mM (inactive). The GI50 [43] was > 10 mM (inactive), the GI50 [44] was > 7.8 mM (inactive) and the GI50 [45] was > 7.41 mM (inactive). The GI50 [46] was 5.96 mM (inactive), the GI50 [47] was > 10 mM (inactive) and the GI50 [48] was > 10 mM (inactive). For the same compound, the GI50 [49] was 7.21 mM (inactive), the GI50 [50] was > 5.94 mM (inactive) and the GI50 [51] was > 10 mM (inactive). The GI50 [52] was 6.52 mM (inactive), the GI50 [67] was > 10 mM (inactive) and the GI50 [53] was > 8.57 mM (inactive). For the same compound, the GI50 [54] was > 10 mM (inactive) and the GI50 [55] was > 6 mM (inactive).
